Data on 15 compounds can be found in patent US12404232B2, “Compounds and compositions for intracellular delivery of therapeutic agents” (ModernaTX, Inc., priority 2015, dated 2025).

Data set [1] in a line: Particle size and polydispersity index of nanoparticle compositions (Zetasizer Nano ZS). The settings on record: for PDI: nanoparticle composition 50:10:38.5:1.5 mol % (Table 1A); for Size (nm): nanoparticle composition lipid:DSPC:cholesterol:PEG-DMG 50:10:38.5:1.5 mol %, mRNA encoding Luc or hEPO (Table 1A). Format: physicochemical. The source says:
Nanoparticle compositions may be characterized by a variety of methods. For example, microscopy (e.g., transmission electron microscopy or scanning electron microscopy) may be used to examine the morphology and size distribution of a nanoparticle composition. Dynamic light scattering or potentiometry (e.g., potentiometric titrations) may be used to measure zeta potentials. Dynamic light scattering may also be utilized to determine particle sizes. Instruments such as the Zetasizer Nano ZS (Malvern Instruments Ltd, Malvern, Worcestershire, UK) may also be used to measure multiple characteristics of a nanoparticle composition, such as particle size, polydispersity index, and zeta potential.
A Zetasizer Nano ZS (Malvern Instruments Ltd, Malvern, Worcestershire, UK) can be used to determine the particle size, the polydispersity index (PDI) and the zeta potential of the nanoparticle compositions in 1×PBS in determining particle size and 15 mM PBS in determining zeta potential.
Initial studies were performed to compare the delivery efficiency of nanoparticle compositions including various compounds according to Formula (I), (IA), (II), (IIa), (IIb), (IIc), (IId) or (IIe). The cationic lipid MC3 is a current standard in the art. Accordingly, the standard MC3 formulation including about 50 mol % MC3, about 10 mol % DSPC, about 38.5 mol % cholesterol, and about 1.5 mol % PEG-DMG was used as a basis for this study. Nanoparticle compositions including DSPC as a phospholipid, cholesterol as a structural lipid, PEG-DMG as a PEG lipid, an RNA, and a compound according to Formula (I), (IA), (II), (IIa), (IIb), (IIc), (IId) or (IIe) selected from Compounds 1-159, 168-170, and 173-175 were prepared according to or via methods similar to those described in Examples 1 and 2. The ratios of the lipids were 50:10:38.5:1.5 mol % for the lipid according to Formula (I), (IA), (II), (IIa), (IIb), (IIc), (IId) or (IIe):DSPC:cholesterol:PEG-DMG. The RNA used was an mRNA encoding G5 luciferase (Luc) or G5 hEPO. Tables 1A-1B summarize the content and characteristics of the formulations. […]

The test system of data set [2] is mice. The experiment in a line: Cytokine induction (IL-6, IP-10) in mice after intravenous administration. Format: in vivo. Also on record: IL-6 / IP-10: unit not given here. The settings on record: 0.5 mpk, 6 hours. The source says: The introduction of foreign material into a mammalian body induces an innate immune response that promotes cytokine production. Such immune responses to, for example, nanoparticle compositions including therapeutic and/or prophylactics, are undesirable. The induction of certain cytokines is thus measured to evaluate the […] of nanoparticle compositions. The concentrations of various cytokines in mice upon intravenous administration of nanoparticle compositions presented in Table 1A at a dosage of 0.5 mpk was measured at 6 hours. The standard MC3 formulation and a PBS control were also tested. As is evident in Table 7, IL-6 induction was highest for compositions including Compounds 1, 3, 9, 19, and 26, while IP-10 induction was highest for compositions including Compounds 3, 4, 7, 20, and 26. IL-6 induction was lowest for compositions including Compounds 4, 11, 12, and 28. IP-10 induction was lowest for compositions including Compounds 10, 11, 12, 13, 15, 17, and 18.
The expression of hEPO and cytokine induction in mice intravenously administered a nanoparticle composition at a dose of 0.5 mpk were measured at 3, 6, and 24 hours. […] The expression of hEPO in mice intramuscularly administered a nanoparticle composition from Table 1B at a dose of 0.01 mpk were measured at 3, 6, and 24 hours. […] (see also FIG. 9.)

Data set [3] has as its system mice. The experiment in a line: Luc expression (total flux) after intramuscular administration. Format: in vivo. The settings on record: 6 hours after intramuscular administration, Luc mRNA and H10 mRNA. As for the experimental part:
The numbers 1-7 in this figure correspond to MC3, Compounds 168-170, and 173-175 respectively.
In order to monitor how effectively various nanoparticle compositions deliver therapeutic and/or prophylactics to targeted cells, different nanoparticle compositions including a particular therapeutic and/or prophylactic (for example, a modified or naturally occurring RNA such as an mRNA) are prepared and administered to rodent populations. Mice are intravenously, intramuscularly, intraarterially, or intratumorally administered a single dose including a nanoparticle composition with a formulation such as those provided in Example 3. In some instances, mice may be made to inhale doses. Dose sizes may range from 0.001 mg/kg to 10 mg/kg, where 10 mg/kg describes a dose including 10 mg of a therapeutic and/or prophylactic in a nanoparticle composition for each 1 kg of body mass of the mouse. A control composition including PBS may also be employed.
The total flux (measured by area under the curve, AUC) induced by administration of a formulation including a given lipid relative to that induced by administration of a formulation including MC3 was also measured for several lipids.
Sample formulations including both modified luciferase (Luc) mRNA and H10 mRNA were prepared and administered intramuscularly and the resulting expression and immunogenicity were evaluated simultaneously. Formulations including compounds according to Formula (I), (IA), (II), (IIa), (IIb), (IIc), (IId) or (IIe) were prepared and administered at doses of 0.001 and 0.01 mpk (e.g., doses of 0.0005 mpk of a formulation including Luc mRNA and a formulation including H10 mRNA or doses of 0.005 mpk of a formulation including Luc mRNA and a formulation including H10 mRNA).
Sample formulations including modified luciferase (Luc) mRNA prepared and administered intramuscularly and the resulting expression and immunogenicity were evaluated simultaneously. Formulations including compounds according to Formula (I), (IA), (II), (IIa), (IIb), (IIc), (IId) or (IIe) were prepared and administered at dose of […] 0.01 mpk.
The fluxes measured upon intravenous and intramuscular administration are compared in Table 6. Fluxes are presented as fold increase over that measured for MC3 formulations.

`CCCC/C=C\CCC(CC/C=C\CCCC)OC(=O)CCCCCCCN(CCO)CCCCCC(=O)OCCCCCCCCCCC` [Compound 61, (5Z,12Z)-heptadeca-5,12-dien-9-yl 8-((2-hydroxyethyl)(6-oxo-6-(undecyloxy)hexyl)amino)octanoate]: in data set [1], the PDI is recorded as 0.11 and the “Size (nm)” value came to 89.1 nm.
The matching figures for `CCCCCCCCCOC(=O)CCCCCCCN(CCCCCCCC(=O)OC(CCCCCCCC)CCCCCCCC)CCCNC(=O)NC` [Compound 112, Heptadecan-9-yl 8-((3-(3-methylureido)propyl)(8-(nonyloxy)-8-oxooctyl)amino)octanoate]: 0.12 and 85.7 nm.
The compound `CCCCCCCCCOC(=O)CCCCCCCN(CCCCO)CCCCCCCC(=O)OC(CCCCCCCC)CCCCCCCC` [Compound 20, Heptadecan-9-yl 8-((4-hydroxybutyl)(8-(nonyloxy)-8-oxooctyl)amino) octanoate] gave an IL-6 in data set [2] of 126.83. In data set [1], the “Size (nm)” value worked out at 111.5 nm.
Consider `CCCCCCCCCOC(=O)CCCCCCCN(CCO)CCCCCCCC(=O)OCCCCCCCCC` [Compound 138, Dinonyl 8,8′-((2-hydroxyethyl)azanediyl)dioctanoate], for which, in data set [2], the IL-6 came out at 23.38 and the IP-10 was found to be 172.56. For the same compound, in data set [3], the “Total flux (p/s) 0.001 mpk Dose” value was 2.72E+05 p/s and the “Total flux (p/s) 0.01 mpk Dose” value amounted to 1.19E+06 p/s.
On to `CCCCCCCCC(CCCCCCCC)OC(=O)CCCCCCCN(CCO)CCCCCCCC(=O)OC(CCCCCCCC)CCCCCCCC` [Compound 29, Di(heptadecan-9-yl) 8,8′-((2-hydroxyethyl)azanediyl)dioctanoate], for which, in data set [2], the IL-6 stood at 69.54 and the IP-10 was determined as 1362.81. Moreover, in data set [3], the “Total flux (p/s) 0.001 mpk Dose” value stood at 7.64E+05 p/s and the “Total flux (p/s) 0.01 mpk Dose” value was determined as 1.12E+07 p/s.
For `CCCCCCCCCOC(=O)CCCCCCCN(CCO)CCCCCCCC(=O)N(CCCCCCCC)CCCCCCCC` [Compound 144, Nonyl 8-((8-(dioctylamino)-8-oxooctyl)(2-hydroxyethyl)amino)octanoate], in that order: 319.46, 4220.55, 2.72E+06 p/s and 2.18E+07 p/s.
In data set [2], `CCCCCCCCCCCCCCN(CCO)CCCCCCCC(=O)OC(CCCCCCCC)CCCCCCCC` [Compound 2, Heptadecan-9-yl 8-((2-hydroxyethyl)(tetradecyl)amino)octanoate] returned an IL-6 of 70.95 and an IP-10 of 468.86. In addition, in data set [3], the “Total flux (p/s) 0.001 mpk Dose” value worked out at 3.55E+06 p/s and the “Total flux (p/s) 0.01 mpk Dose” value was determined as 6.16E+07 p/s.
On to `CCCCCCCCC(CC)OC(=O)CCCN(CCO)CCCCCCCC(=O)OC(CCCCCCCC)CCCCCCCC` (stereo not shown) [Compound 72, Heptadecan-9-yl 8-((2-hydroxyethyl)(4-oxo-4-(undecan-3-yloxy)butyl)amino)octanoate], for which, in data set [1], the PDI is on record as 0.11 and the “Size (nm)” value is 65.4 nm.
`CCCCCCCCC(CCCCCCCC)OC(=O)CCCCCCCN(CCO)CCCCCCCC(=O)OCC1CC1CCCCCC` (stereo not shown) [Compound 28, Heptadecan-9-yl 8-((8-((2-hexylcyclopropyl)methoxy)-8-oxooctyl)(2-hydroxyethyl)amino)octanoate] showed an IP-10 in data set [2] of 283.13. For the same compound, in data set [3], the “Total flux (p/s) 0.001 mpk Dose” value is recorded as 6.73E+05 p/s and the “Total flux (p/s) 0.01 mpk Dose” value is on record as 5.56E+06 p/s.
For `CCCCCCCCC(CCCCCCCC)OC(=O)CCCCCCCN(CCO)CCCCCC(=O)OC(CCCCCCCC)C1CC1` (stereo not shown) [Compound 128, Heptadecan-9-yl 8-((6-((1-cyclopropylnonyl)oxy)-6-oxohexyl)(2-hydroxyethyl)amino)octanoate], in data set [1], the PDI came to 0.14 and the “Size (nm)” value was determined as 69.4 nm.
In data set [2], `CCCCCCCCCOC(=O)CCCCCCCN(CCO)CCCCCC(=O)OC(CCCCCCCC)CCCCCCCC` [Compound 27, Nonyl 8-((6-(heptadecan-9-yloxy)-6-oxohexyl)(2-hydroxyethyl)amino) octanoate] yielded an IL-6 of 161.07 and an IP-10 of 345.56. Besides, in data set [3], the “Total flux (p/s) 0.001 mpk Dose” value was 2.55E+06 p/s and the “Total flux (p/s) 0.01 mpk Dose” value is given as 3.17E+07 p/s.
For `CCCCCCCCCOC(=O)CCCCCCCN(CCCCCCCC(=O)OC(CCCCCCCC)CCCCCCCC)CCCNC(=O)N(C)C` [Compound 110, Heptadecan-9-yl 8-((3-(3,3-dimethylureido)propyl)(8-(nonyloxy)-8-oxooctyl)amino)octanoate], in data set [1], the PDI was 0.13 and the “Size (nm)” value is on record as 118 nm.
For `CCCCCCCCCOC(=O)CCCCCCCN(CCO)CCCCCCCCCC(=O)OC(CCCCCCCC)CCCCCCCC` [Compound 23, Heptadecan-9-yl 10-((2-hydroxyethyl)(8-(nonyloxy)-8-oxooctyl)amino) decanoate], in data set [2], the IL-6 came to 94.00 and the IP-10 was 1015.95. In addition, in data set [3], the “Total flux (p/s) 0.001 mpk Dose” value is on record as 8.27E+06 p/s and the “Total flux (p/s) 0.01 mpk Dose” value was 2.20E+06 p/s.
With `CCCCCCCCC(CC)OC(=O)CCCCCN(CCO)CCCCCCCC(=O)OC(CCCCCCCC)CCCCCCCC` (stereo not shown) [Compound 75, Heptadecan-9-yl 8-((2-hydroxyethyl)(6-oxo-6-(undecan-3-yloxy)hexyl)amino)octanoate], in data set [1], the PDI is recorded as 0.10 and the “Size (nm)” value worked out at 64.2 nm.
In the case of `CCCCCCCCCOC(=O)CCCCCCCN(CCCCCCCC(=O)OC(CCCCCCCC)CCCCCCCC)CCCNC(=S)NC` [Compound 113, Heptadecan-9-yl 8-((3-(3-methylthioureido)propyl)(8-(nonyloxy)-8-oxooctyl)amino)octanoate], in data set [1], the PDI was found to be 0.15 and the “Size (nm)” value is 69.2 nm.
